Test [1] addresses T1, Biotinylated Human ACE2, His, Avitag protein (Homo sapiens, UniProt Q9BYF1).
T1 construct: His; purchased ACROBiosystems AC2-H82E6
Nature of the test: Surface plasmon resonance (SPR) multiple cycle kinetics (MCK) direct binding. Conditions: 25° C., 6.25 nM to 100 nM analyte, Langmuir (1:1) model. How it is done:
3. Affinity Determination by Surface Plasmon Resonance (SPR) Via Multiple Cycle Kinetics (MCK)
Binding of bicyclic peptides of the invention to Biotinylated Human ACE2, His, Avitag™ protein (ACROBiosystems, AC2-H82E6) was assessed by a MCK analysis. Experiments were performed at 25° C. on a Biacore T200 (Cytiva) running Biacore T200 Control software V2.0.1 and Evaluation software V3.0 (Cytiva). HBS-EP+(Cytiva) was used as running buffer as well as for ligand and analyte dilutions. Biotin CAPture reagent was loaded onto a Series S Sensor CAP Chip (Cytiva) followed by loading of biotinylated ACE2 at a flow rate of 2 μl/min. The surface was then allowed to stabilise.
MCK data was obtained using bicyclic peptides of the invention as analytes injected at a flow rate of 30 μl/min to minimise any potential mass transfer effects. A five point, two-fold dilution range from 6.25 nM to 100 nM of analyte was prepared in running buffer. For each concentration, the association phases were monitored for 250 seconds and the dissociation phase was measured for 450 seconds. Regeneration of the sensor chip surface was conducted between cycles using the CAP Chip standard regeneration buffer (Cytiva). Multiple repeats of a blank and of Bicycle were programmed into the kinetic run in order to check the stability of both the surface and analyte over the kinetic cycles. […]

Test [2] has as its target T1, Biotinylated Human ACE2, His, Avitag protein. Nature of the test: Surface plasmon resonance (SPR) single cycle kinetics (SCK) direct binding. To be noted: 25° C., Langmuir (1:1) model. Here is the method:
2. Affinity Determination by Surface Plasmon Resonance (SPR) Via Single Cycle Kinetics (SCK)
Binding of bicyclic peptides of the invention to Biotinylated Human ACE2, His, Avitag™ protein (ACROBiosystems, AC2-H82E6) was assessed by a SCK analysis. Experiments were performed at 25° C. on a Biacore T200 (Cytiva) running Biacore T200 Control software V2.0.1 and Evaluation software V3.0 (Cytiva). HBS-EP+ (Cytiva) was used as running buffer as well as for ligand and analyte dilutions. Biotin CAPture reagent was loaded onto a Series S Sensor CAP Chip (Cytiva) followed by loading of the ACE2 protein at a flow rate of 2 μl/min. The surface was then allowed to stabilise.
SCK data was obtained using bicyclic peptides of the invention as analytes injected at a flow rate of 30 μl/min to minimise any potential mass transfer effects. A minimum four point 2-fold dilution of analyte based on the affinity of the bicyclic peptides of the invention in running buffer was used without regeneration between each concentration. The association phases were monitored for 100 seconds for each of the four injections of increasing concentrations of analyte and a single dissociation phase was measured for 400 seconds following the last injection of analyte. Regeneration of the sensor chip surface was conducted using the CAP Chip standard regeneration buffer (Cytiva).
The signal from the reference channel Fc1 (no ACE2 captured) was subtracted from that of Fc2, Fc3 and Fc4 to correct for bulk effect and differences in non-specific binding to a reference surface. The signal from each blank run (Fc2-ACE2 captured but no antigen) was subtracted to correct for differences in surface stability. The double referenced sensorgrams were fitted with the Langmuir (1:1) binding model (Equation 1a below) where the closeness of fit of the data to the model is evaluated using the Chi square value which describes the deviation between the experimental and fitted (observed and expected) curves (Equation 1b below).

Four substances from patent publication US20230183291A1, “ANTI-INFECTIVE BICYCLIC PEPTIDE LIGANDS” (priority 2020, published 2023) can be followed below.

T1 sequence (Q9BYF1 18-740 limits assumed): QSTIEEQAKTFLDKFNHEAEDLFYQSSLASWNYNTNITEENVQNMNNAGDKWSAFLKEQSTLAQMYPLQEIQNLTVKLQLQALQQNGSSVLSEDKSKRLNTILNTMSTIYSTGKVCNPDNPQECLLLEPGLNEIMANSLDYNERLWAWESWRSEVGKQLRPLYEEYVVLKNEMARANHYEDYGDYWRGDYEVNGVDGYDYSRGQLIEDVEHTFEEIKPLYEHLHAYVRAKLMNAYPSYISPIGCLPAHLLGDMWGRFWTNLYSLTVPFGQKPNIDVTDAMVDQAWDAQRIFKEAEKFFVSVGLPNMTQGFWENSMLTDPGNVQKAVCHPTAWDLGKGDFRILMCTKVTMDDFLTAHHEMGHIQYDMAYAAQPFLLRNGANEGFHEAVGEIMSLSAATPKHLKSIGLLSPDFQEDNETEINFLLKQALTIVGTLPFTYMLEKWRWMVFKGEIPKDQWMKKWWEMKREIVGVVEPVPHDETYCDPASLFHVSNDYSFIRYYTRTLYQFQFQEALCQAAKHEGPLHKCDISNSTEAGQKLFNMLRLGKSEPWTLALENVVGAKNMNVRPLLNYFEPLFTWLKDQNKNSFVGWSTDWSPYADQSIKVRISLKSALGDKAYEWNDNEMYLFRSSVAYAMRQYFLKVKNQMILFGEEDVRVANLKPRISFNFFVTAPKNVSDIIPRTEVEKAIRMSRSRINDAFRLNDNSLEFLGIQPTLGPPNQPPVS

With “CiNAVLCiiSWA[HArg][HyP]NSFCiii cyclised with TATA [BCY19024, Ac-(SEQ ID NO: 56)]”, in test [1], the “Geometric Mean KD (nM)” value is “No sig. binding at top conc. tested”.

As for “CiNAVLCiiSWA[HArg][dA]NSFCiii cyclised with TATA [BCY18256, Ac-(SEQ ID NO: 45)]”, the “Geometric Mean KD (nM)” value in test [2] is reported as “No sig. binding at top conc. tested”. The same measure, in the same setting: in the case of “CiNDVLCiiSWA[HArg]ANSFCiii cyclised with TATA [BCY18659, Ac-(SEQ ID NO: 54)]” it was “No sig. binding at top conc. tested”; in that of “CiNEVLCiiSWA[HArg]ANSFCiii cyclised with TATA [BCY18783, Ac-(SEQ ID NO: 55)]”, “No sig. binding at top conc. tested”.
